Experimental data reported in ChEMBL document CHEMBL4138125, “Recent advances in discovery and development of natural products as source for anti-Parkinson's disease lead compounds” (2017).

Tests used:
Format in all cases: functional
[1] = Neuroprotective activity in OF1/SPF […] brain dopaminergic neurons assessed as suppression of long-term rotenone-induced cell death at 0.1 to 10 uM incubated concomitantly with rotenone from days 6 to 12
[2] = Neuroprotective activity in OF1/SPF […] brain dopaminergic neurons assessed as suppression of MPP+-induced cell death at 0.1 to 10 uM pre-incubated for 4 days tarting from day 8 before MPP+ challenge for 48 hrs
[3] = Neuroprotective activity in OF1/SPF […] brain dopaminergic neurons assessed as suppression of short-term rotenone -induced cell death at 0.1 to 10 uM pre-incubated for 4 days starting from day 8 before rotenone challenge for 48 hrs

Work on `CC1=CC(=O)C(C(C)C)=CC1=O` [THYMOQUINONE] yielded an Activity [1] of 24%, an Activity [2] of 40% and an Activity [3] of 33%.
